Source: US20200345805A1, “COMPOSITIONS AND METHODS USEABLE FOR TREATMENT OF DRY EYE” (priority 2019, published 2020)
Non-standard residues stand in square brackets, D forms with d. Residues, ends and D or L forms follow the SMILES beside them. Cya = N[C@@H](CS(=O)(=O)O)C(=O)O

Tested on: Integrin αMβ2
Test: Expression of integrin αMβ2 in ischemic retinopathy of prematurity (ROP) mice after Risuteganib treatment
Type: in vivo
Conditions: FIG. 1
Excerpt: FIG. 1 is a graphic showing expression of integrin αMβ2 in ischemic retinopathy of prematurity (ROP) mice after Risuteganib treatment. Risuteganib is a small peptide that acts as an integrin inhibitor. Risuteganib targets multiple integrin subunits, including Integrin αMβ2 which is sometimes referred to as the “compliment 3 receptor” and is actively involved in inflammatory pathways and, in particular, the compliment 3 pathway. […] By causing such inhibition of Integrin αMβ2 Risuteganib may interfere with leucocyte adhesion and trans-endothelial migration, thereby resulting in decreased inflammation and improvement in the symptoms of Dry Eye.

C[C@@H](O)[C@H](NC(=O)[C@H](CS(=O)(=O)O)NC(=O)CNC(=O)[C@H](CCCNC(=N)N)NC(=O)CN)C(=O)N1CCC[C@H]1C(=O)O [Risuteganib, Glycyl-L-arginylglycyl-3-sulfo-L-alanyl-L-threonyl-L-proline] (H-GRG[Cya]TP-OH)
expression of Integrin αMβ2: decreases expression
